US9364458B2, “Stabilized pharmaceutical dosage forms comprising atrasentan” (AbbVie Inc., priority 2013, dated 2016)
Structures can show the parent of a compound that is named as a salt.

Assays:
[1] = Dispersive surface energy by inverse gas chromatography; format: physicochemical
Protocol: Wet granulation blends prepared as described in Method 2 (atrasentan added dry to granulation bowl) and Method 3 (atrasentan added as HPMC suspension to granulation bowl) of Example 6 were analyzed prior to compression using inverse gas chromatography (“IGC”) to determine the surface energy of the blends. These measurements were compared to the measured values for pure atrasentan and pure HPMC.

[2] = Impurities / degradation products by HPLC in stability testing; format: physicochemical; conditions: mixtures with atrasentan and crospovidone, 80° C.
[3] = system: subjects with diabetic nephropathy; assay: Phase IIb clinical trials of atrasentan; format: in vivo, human
From the text: The low dosing and the narrow therapeutic window for atrasentan have been confirmed through analysis of the data collected from recent Phase IIb clinical trials in subjects with diabetic nephropathy. These Phase IIb clinical trials evaluated the safety and efficacy of atrasentan to identify an appropriate balance between the systemic effects of atrasentan (which can lead to adverse side effects such as edema) and the efficacy effects of atrasentan. […] Reduction of residual albuminuria and the urinary-albumin-to-creatine ratio are surrogate endpoints generally associated with delaying the progression of end-stage renal disease and associated cardiovascular complications.

[4] = about 0.25 mg to about 1.25 mg daily
[5] = daily dose greater than about 1.25 mg

CCCCN(CCCC)C(=O)CN1C[C@H](c2ccc3c(c2)OCO3)[C@@H](C(=O)O)[C@@H]1c1ccc(OC)cc1 [Atrasentan Monohydrochloride]
DISPERSIVE SURFACE ENERGY ([1]; Average): 50.9 mJ · m^−2 | DISPERSIVE SURFACE ENERGY ([1]; Run 1): 50.6 mJ · m^−2 | DISPERSIVE SURFACE ENERGY ([1]; Run 2): 51.4 mJ · m^−2

Cl.N[C@@H](CS)C(=O)O.O [L-cysteine hydrochloride monohydrate]
stabilizing effect among the three anti-oxidants [2]: greatest stabilizing effect

CCCCN(CCCC)C(=O)CN1C[C@H](c2ccc3c(c2)OCO3)[C@@H](C(=O)O)[C@@H]1c1ccc(OC)cc1 [atrasentan, (2R,3R,4S)-4-(1,3-benzodioxol-5-yl)-1-[2-(dibutylamino)-2-oxoethyl]-2-(4-methoxyphenyl)pyrrolidine-3-carboxylic acid]
residual albuminuria [3, 4]: significantly reduce | urinary-albumin-to-creatine ratio [3, 4]: significantly reduce | adverse effects, particularly peripheral edema [3, 5]: increase in adverse effects | efficacy relative to the 1.25 mg daily dose [3, 5]: without any further improvement in efficacy | efficacy of daily dose ([3]; daily dose less than about 0.25 mg): sub-therapeutic
